# Laboratory results reported in patent US12440833B2, “Sample containers adapted for acoustic ejections and sample preservation and methods thereof” (priority 2011, dated 2025).
# Where two headings read alike, the source gives them in different places.
# Key:
# TPCK trypsin [1] = target: T1, TPCK trypsin (Bos taurus, UniProt P00760); type: biochemical; details: for average fluorescence of wells with trypsin exposed to tubes with immobilized ligand: 12.5 ng trypsin per tube, 120 minutes at room temperature
# T1 construct: purchased Thermo Scientific Pierce 23266
# T1 sequence (P00760 24-246): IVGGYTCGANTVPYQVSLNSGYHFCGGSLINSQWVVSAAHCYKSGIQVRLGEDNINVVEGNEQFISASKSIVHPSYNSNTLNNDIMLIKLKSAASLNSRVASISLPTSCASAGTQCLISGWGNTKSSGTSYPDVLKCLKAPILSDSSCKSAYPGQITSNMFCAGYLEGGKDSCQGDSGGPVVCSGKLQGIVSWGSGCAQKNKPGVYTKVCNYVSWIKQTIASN
# Experimental: Protease activity and the inhibition thereof were measured with a Fluorescent Protease Assay Kit (Thermo Scientific Pierce, catalog number 23266). TRIS-buffered saline (TBS, 25 mM Tris, 0.15 M NaCl, pH 7.2) was reconstituted from dry solids in the kit with deionized water. Trypsin stock solution was freshly prepared by dissolving TPCK trypsin from kit with 1 mL deionized water to make a 50 mg/mL solution. […] Aliquots of 10 μL were stored at −60° C. Individual aliquots of the stock solution were diluted in 1.0 mL of TBS (0.5 mg/mL), and 10 μL of this solution was further diluted in 10 mL of TBS (0.5 μg/mL). This solution was serially diluted 1:1 with TBS to create a trypsin solution of 62.5 ng/mL. The trypsin solution was kept in an ice bath until use. 200 μL of the diluted trypsin (12.5 ng) was added to each prepared polypropylene tube. The solution was aspirated and re-dispensed three times in each tube to assure complete mixing and contact of the solution with the derivatized internal walls of the tubes. A new disposable tip was used for each transfer. After incubation at room temperature for 120 minutes, 100 μL of the trypsin solution from each tube was placed into individual wells of a 96-well, black, flat-bottomed plate (Greiner Bio-one, catalog number 655076, Monroe, N.C.). […] The plate was incubated at room temperature for 95 minutes. […] Increased fluorescence is indicative of trypsin-mediated digestion of the added FTC-casein solution via the decrease of FRET-based fluorescence quenching that exists in the intact protein.
# TPCK trypsin [2] = target: T1, TPCK trypsin; type: biochemical; details: for average fluorescence of wells with trypsin exposed to tubes with immobilized ligand: 12.5 ng trypsin per tube, 120 minutes at room temperature; remark: listed apart in the source
# Experimental: Protease activity and the inhibition thereof were measured with a Fluorescent Protease Assay Kit (Thermo Scientific Pierce, catalog number 23266). TRIS-buffered saline (TBS, 25 mM Tris, 0.15 M NaCl, pH 7.2) was reconstituted from dry solids in the kit with deionized water. Trypsin stock solution was freshly prepared by dissolving TPCK trypsin from kit with 1 mL deionized water to make a 50 mg/mL solution. Aliquots of 10 μL were stored at −60° C. Individual aliquots of the stock solution were diluted in 1.0 mL of TBS (0.5 mg/mL), and 10 μL of this solution was further diluted in 10 mL of TBS (0.5 μg/mL). This solution was serially diluted 1:1 with TBS to create a trypsin solution of 62.5 ng/mL. The trypsin solution was kept in an ice bath until use. 200 μL of the diluted trypsin (12.5 ng) was added to each prepared polypropylene tube. The solution was aspirated and re-dispensed three times in each tube to assure complete mixing and contact of the solution with the derivatized internal walls of the tubes. A new disposable tip was used for each transfer. After incubation at room temperature for 120 minutes, 100 μL of the trypsin solution from each tube was placed into individual wells of a 96-well, black, flat-bottomed plate (Greiner Bio-one, catalog number 655076, Monroe, N.C.). FTC-casein—(casein protein modified by the addition of fluorescein isothiocyanate, a part of the Fluorescent Protease Assay Kit) solution in TBS buffer was freshly prepared and 100 μL of this solution was added to each well and mixed via aspiration and dispense. The plate was incubated at room temperature for 95 minutes. The fluorescence of the samples in the 96-well plate was measured on a SpectraFluor Plus fluorescence spectrometer (Tecan, Mannedorf, Switzerland) 5 minutes after the solution was added and additionally after 10, 20, 40, 60 and 95 minutes. Increased fluorescence is indicative of trypsin-mediated digestion of the added FTC-casein solution via the decrease of FRET-based fluorescence quenching that exists in the intact protein.
# [3] = 0.1 mM TLCK in the well (not immobilized), after 20 minutes, background 5382 RFU
# [4] = Example A, ligand immobilized on tube wall, background 5382 RFU
# [5] = Example B, ligand immobilized on tube wall, background 5382 RFU
structure (smiles),measurement,setting,value
"Cc1ccc(S(=O)(=O)N[C@@H](CCCCN)C(=O)CCl)cc1.Cl [TLCK Ligand, N-alpha-tosyl-L-lysine chloromethyl ketone hydrochloride]","fluorescence of wells that contained FTC-casein, trypsin and inhibitor",TPCK trypsin [1]; [3],6841 RFU
same,average fluorescence of wells with trypsin exposed to tubes with immobilized ligand,TPCK trypsin [1]; [4],15521 RFU
same,inhibition of trypsin activity,"TPCK trypsin [1]; Example A, ligand immobilized on tube wall, trypsin exposed 120 minutes at room temperature",35%
same,"fluorescence of wells that contained FTC-casein, trypsin and inhibitor",TPCK trypsin [2]; [3],6841 RFU
same,average fluorescence of wells with trypsin exposed to tubes with immobilized ligand,TPCK trypsin [2]; [5],13386 RFU
same,inhibition of trypsin activity,"TPCK trypsin [2]; Example B, ligand immobilized on tube wall, trypsin exposed 120 minutes at room temperature",48%
"NCCCO [AP Ligand, 3-amino-1-propanol]",average fluorescence of wells with trypsin exposed to tubes with immobilized ligand,TPCK trypsin [1]; [4],21289 RFU
same,average fluorescence of wells with trypsin exposed to tubes with immobilized ligand,TPCK trypsin [2]; [5],20847 RFU
